# Columns and labels:
# JAK3 JH1 kinase = JAK3 JH1 kinase (Homo sapiens, UniProt P52333); experiment: JAK3 JH1 enzyme assay in vitro (TR-FRET); assay type: biochemical; conditions: TR-FRET; read-out: JAK 3 JH1 IC50
# TYK2 JH1 kinase = molecular target: T1, TYK2 JH1 kinase (Homo sapiens, UniProt P29597); experiment: TYK2 JH1 enzyme assay in vitro (TR-FRET); assay type: biochemical
# T1 sequence (P29597 897-1176 limits assumed): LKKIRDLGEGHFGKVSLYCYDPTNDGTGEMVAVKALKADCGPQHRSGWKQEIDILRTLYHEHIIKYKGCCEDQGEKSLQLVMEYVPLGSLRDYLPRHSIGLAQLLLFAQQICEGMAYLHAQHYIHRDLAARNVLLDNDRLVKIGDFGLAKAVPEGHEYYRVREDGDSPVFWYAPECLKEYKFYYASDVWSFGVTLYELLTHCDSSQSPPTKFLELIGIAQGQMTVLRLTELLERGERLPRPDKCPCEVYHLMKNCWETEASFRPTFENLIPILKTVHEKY
# [1] = molecular target: Ba/F3 cell line expressing TYK2 (Homo sapiens, UniProt P29597, cells depend on it, form not given); experiment: In vitro cellular inhibition assay (Ba/F3 cell proliferation, CellTiter-Glo); assay type: cell-based; conditions: read-out: IC50 (the source's name)
# Protocol: The inhibitory effect of the compounds of formula (I) according to the present invention on the TYK2 signaling pathway in cells was assessed using the following method:
# Instrumentation: SpectraMax Paradigm reader.
# Method: in this experiment, a Ba/F3 cell line expressing TYK2 was employed to assess the effect of the compounds on cell proliferation inhibition by measuring their effects on cell activity in vitro.
# Procedure: a CellTiter-Glo buffer was thawed and placed aside till room temperature. A CellTiter-Glo substrate was placed aside till room temperature and dissolved with the buffer to prepare a CellTiter-Glo working solution. To a 96-well flat bottom transparent drug plate, 98 μL of cell culture medium and 2 μL of gradient diluted compound solution were added. The drug plate was placed aside for 10 min, and then 50 μL of the CellTiter-Glo working solution was added. The drug plate was subsequently shaken on an orbital shaker for 2 min and placed aside at room temperature for an additional 10 min. Finally, the luminescence signal was measured on the SpectraMax Paradigm reader.
# Data Analysis: the cell proliferation inhibition rate data were processed using the following formula:
# Inhibition Rate (Inh %)=100−(RLUDrug−RLUMin)/(RLUMax−RLUMin)×100%.
# The inhibition rates of compounds with different concentrations were calculated in EXCEL, and then GraphPad Prism software was employed to plot inhibition rate curve and calculate relevant parameters, including maximum and minimum cell inhibition rates, IC50 values.
# JAK2 JH1 kinase = JAK2 JH1 kinase (Homo sapiens, UniProt O60674); experiment: JAK2 JH1 enzyme assay in vitro (TR-FRET); assay type: biochemical; conditions: read-out: JAK 2 JH1 IC50
# JAK2 JH1 kinase, sequence (O60674 849-1124 limits assumed): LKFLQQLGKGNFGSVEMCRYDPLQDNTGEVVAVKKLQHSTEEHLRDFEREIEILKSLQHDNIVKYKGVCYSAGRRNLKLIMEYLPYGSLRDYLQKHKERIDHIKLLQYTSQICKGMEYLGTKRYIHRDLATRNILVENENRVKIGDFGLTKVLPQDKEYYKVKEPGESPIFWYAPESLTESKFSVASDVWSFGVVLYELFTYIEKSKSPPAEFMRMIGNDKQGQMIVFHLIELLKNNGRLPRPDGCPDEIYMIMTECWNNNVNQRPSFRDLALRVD
# JAK1 JH1 kinase = JAK1 JH1 kinase (Homo sapiens, UniProt P23458); experiment: JAK1 JH1 enzyme assay in vitro (TR-FRET); assay type: biochemical; conditions: read-out: JAK 1 JH1 IC50
# JAK1 JH1 kinase, sequence (P23458 875-1153 limits assumed): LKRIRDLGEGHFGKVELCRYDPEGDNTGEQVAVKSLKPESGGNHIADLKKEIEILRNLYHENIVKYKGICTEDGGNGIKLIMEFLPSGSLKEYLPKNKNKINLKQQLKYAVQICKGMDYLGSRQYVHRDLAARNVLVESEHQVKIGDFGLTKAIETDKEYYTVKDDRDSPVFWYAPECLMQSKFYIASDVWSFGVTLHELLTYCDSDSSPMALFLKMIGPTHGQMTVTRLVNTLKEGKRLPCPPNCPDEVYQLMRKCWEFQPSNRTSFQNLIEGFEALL
# TYK2 JH2 pseudokinase = TYK2 JH2 pseudokinase (Homo sapiens, UniProt P29597); experiment: TYK2 JH2 enzyme binding assay in vitro (TR-FRET)
# TYK2 JH2 pseudokinase, sequence (P29597 589-875 limits assumed): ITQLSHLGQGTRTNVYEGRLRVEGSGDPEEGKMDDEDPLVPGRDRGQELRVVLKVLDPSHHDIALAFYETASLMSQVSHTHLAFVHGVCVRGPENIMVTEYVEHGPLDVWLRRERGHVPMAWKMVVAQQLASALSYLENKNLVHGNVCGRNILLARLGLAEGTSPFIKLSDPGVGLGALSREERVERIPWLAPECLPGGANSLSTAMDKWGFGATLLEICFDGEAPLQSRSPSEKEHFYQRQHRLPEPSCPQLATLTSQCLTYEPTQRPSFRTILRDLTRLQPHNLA
# Protocol: Instrumentation: Envision microplate reader (PerkinElmer), ECHO550 (LABCYTE).
# Method: the inhibitory effects of compounds on TYK2 JH2 pseudokinase was tested using time-resolved fluorescence resonance energy transfer (TR-FRET) method.
# Procedure: compounds were prepared into 10 mM stock solutions using DMSO, which were further diluted into compound dilutions (200×) with different concentration gradients in DMSO, and the compound dilutions (200×) were transferred to a 384-well assay plate using an Echo instrument. […] TYK2 JH2 pseudokinase, Tb antibody, and Tracer working solutions were prepared using the dilution buffer, respectively. 5 uL of TYK2 JH2 pseudokinase working solution (final concentration 0.5 nM) was added to a 384-well assay plate, and centrifuged at 1000 rpm for 30 s. 5 uL of Tb antibody (final concentration 1×) was added to the 384-well assay plate, and centrifuged at 1000 rpm for 30 s. 5 uL of Tracer (final concentration 0.5 nM) was added to the 384-well assay plate, and centrifuged at 1000 rpm for 30 s. Incubation was performed at room temperature for 60 min, and then at 4° C. overnight.
# Data Analysis: XLfit, a software developed by IDBS and integrated into the Microsoft Excel environment, was used to process and analyze the test data.
# hERG channel = molecular target: T2, hERG channel (Homo sapiens, UniProt Q12809); experiment: hERG potassium channel inhibition assay (manual patch clamp); assay type: cell-based; conditions: HEK-293 cell line stably expressing hERG channel, at the tested concentrations
# T2 construct: expressed in transfected cells; host or cells: HEK-293
# T2 sequence (Q12809 whole entry): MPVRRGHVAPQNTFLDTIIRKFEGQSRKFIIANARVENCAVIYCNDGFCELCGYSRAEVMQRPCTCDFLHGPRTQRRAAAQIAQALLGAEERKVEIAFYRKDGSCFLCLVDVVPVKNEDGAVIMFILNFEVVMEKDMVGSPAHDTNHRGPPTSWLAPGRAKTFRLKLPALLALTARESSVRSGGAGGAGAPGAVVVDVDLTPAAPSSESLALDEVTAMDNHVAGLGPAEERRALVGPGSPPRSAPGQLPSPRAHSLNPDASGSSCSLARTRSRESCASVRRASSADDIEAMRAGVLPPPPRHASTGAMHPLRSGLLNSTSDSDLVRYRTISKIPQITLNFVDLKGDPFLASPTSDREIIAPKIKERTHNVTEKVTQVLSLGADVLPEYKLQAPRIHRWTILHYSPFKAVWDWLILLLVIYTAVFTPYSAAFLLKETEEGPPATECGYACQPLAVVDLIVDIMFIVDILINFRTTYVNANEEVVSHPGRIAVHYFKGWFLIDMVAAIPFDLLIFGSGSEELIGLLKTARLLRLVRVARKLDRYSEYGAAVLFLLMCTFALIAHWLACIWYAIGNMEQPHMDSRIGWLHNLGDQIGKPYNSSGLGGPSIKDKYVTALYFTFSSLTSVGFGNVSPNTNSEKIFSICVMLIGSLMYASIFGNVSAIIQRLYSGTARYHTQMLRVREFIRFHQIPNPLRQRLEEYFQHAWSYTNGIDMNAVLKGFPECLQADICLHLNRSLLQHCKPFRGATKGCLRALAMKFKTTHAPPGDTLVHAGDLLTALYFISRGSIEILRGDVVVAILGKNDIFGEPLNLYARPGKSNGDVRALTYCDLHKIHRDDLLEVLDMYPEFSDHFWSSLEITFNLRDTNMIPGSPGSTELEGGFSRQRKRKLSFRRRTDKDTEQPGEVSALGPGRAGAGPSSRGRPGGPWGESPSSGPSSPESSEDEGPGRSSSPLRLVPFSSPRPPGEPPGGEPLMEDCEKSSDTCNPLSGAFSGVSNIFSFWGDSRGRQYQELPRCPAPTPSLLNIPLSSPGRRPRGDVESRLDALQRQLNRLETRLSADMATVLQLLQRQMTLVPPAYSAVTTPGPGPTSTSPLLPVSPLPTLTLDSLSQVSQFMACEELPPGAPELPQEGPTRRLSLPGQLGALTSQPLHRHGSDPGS
# Protocol: Instrumentation: HEKA EPC 10 patch clamp amplifier.
# Method: in this experiment, the blocking effect of the compounds on the current of the HEK-293 cell line stably expressing hERG channel was measured using the manual patch clamp technique, and the risk of the compounds on the inhibition of cardiac hERG potassium channel was assessed by fitting the concentration effect relationship.
# Procedure: in the patch clamp operation, firstly, a capillary glass tube was pulled into a recording electrode using a microelectrode puller, then an electrode filled with intracellular solution was mounted into a microelectrode holder. A microelectrode manipulator was operated under an inverted microscope to immerse the electrode into an extracellular solution and the electrode resistance (Rpip) was recorded. Then, the electrode was slowly brought into contact with the cell surface, and a negative pressure was applied for suction to form a GΩ seal. At this point, a fast capacitance compensation was performed, and a negative pressure was continuously applied to suck and break the cell membrane to form a whole cell recording mode. Finally, a slow capacitance compensation was performed and experimental parameters including series resistance (Rs) and the like were recorded. No leakage compensation was performed. When the hERG current recorded by the whole cell was stable, the administration of drugs commenced, and each drug concentration acted for about 5 min (or until the current stabilization) before detecting the next concentration. A cover glass covered with cells was placed in a recording bath under an inverted microscope, the blank control extracellular solution and the working solution of the compounds to be tested sequentially flowed through the recording bath from low concentration to high concentration by using gravity perfusion to act on the cells, and solution exchange was performed using a peristaltic pump during recording. The current measured by each cell in the extracellular solution without the compound served as its own control group. Each concentration was independently assessed twice. All electrophysiological tests were performed at room temperature.
# Data Analysis: firstly, the tail current (Peak tail currentcompound) after the action of each drug concentration and the blank control tail current (Peak tail currentcontrol) were normalized, then the inhibition rate
# corresponding to each drug concentration was calculated, and the mean (Mean), standard deviation (SD) and standard error (SE) of the inhibition rate corresponding to each concentration were calculated, with data expressed as Mean±SE. The calculation of IC50 value and the fitting of dose-response curve for the compound were performed using GraphPad Prism software.
# JAK1 JH2 pseudokinase = JAK1 JH2 pseudokinase (Homo sapiens, UniProt P23458); experiment: JAK1 JH2 enzyme binding assay in vitro (TR-FRET); conditions: read-out: JAK 1 JH2 IC50
# JAK1 JH2 pseudokinase, sequence (P23458 583-855 limits assumed): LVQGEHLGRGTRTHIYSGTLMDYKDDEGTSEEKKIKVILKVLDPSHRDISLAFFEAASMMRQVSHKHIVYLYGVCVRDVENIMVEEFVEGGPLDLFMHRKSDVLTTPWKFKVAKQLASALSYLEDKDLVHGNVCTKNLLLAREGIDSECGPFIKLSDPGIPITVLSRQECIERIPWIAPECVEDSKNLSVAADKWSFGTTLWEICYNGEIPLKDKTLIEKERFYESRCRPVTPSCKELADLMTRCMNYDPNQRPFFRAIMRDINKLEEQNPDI
# Protocol: Instrumentation: Envision microplate reader (PerkinElmer), Echo (LABCYTE)
# Method: in this experiment, the inhibitory effects of compounds on JAK1 JH2 pseudokinase was tested using time-resolved fluorescence resonance energy transfer (TR-FRET) method.
# Procedure: compounds were prepared into 10 mM stock solutions using DMSO, which were further diluted into compound dilutions with different concentration gradients in DMSO, and the compound dilutions with 200× final concentration were transferred to a 384-well assay plate using an Echo instrument. The preparation of the following 1× assay working solution: HEPES pH7.5 at a final concentration of 20 mM, MgCl2 at a final concentration of 10 mM, Brij-35 at a final concentration of 0.015%, DTT at a final concentration of 2 mM, BSA at a final concentration of 50 ug/mL. JAK1 JH2 pseudokinase with 3× final concentration, Tb antibody and Tracer were prepared using their respective 1× working solution. 5 uL of JAK1 JH2 pseudokinase was added to a 384-well assay plate, and centrifuged at 1000 rpm for 30 s. 5 uL of Tb antibody was added to the 384-well assay plate, and centrifuged at 1000 rpm for 30 s. 5 uL of Tracer was added to the 384-well assay plate, and centrifuged at 1000 rpm for 30 s. Incubation was performed at room temperature for 60 min, and then at 4° C. overnight. Finally, the 495 nm/520 nm fluorescence signal ratio was measured using the Envision microplate reader (PerkinElmer).
# Data Analysis: XLfit, a software developed by IDBS and integrated into the Microsoft Excel environment, was used to process and analyze the test data. […] Thereafter, the concentration and corresponding inhibition rate data were imported into the XLfit software, and the Dose Response One Site 205 model within the software was employed to fit the inhibition rate-concentration curve by four-parameter method, and the IC50 value of the compound was calculated.
# [2] = system: imiquimod-induced mouse psoriasis-like model; experiment: Imiquimod-induced mouse psoriasis-like model (PASI score); assay type: in vivo; conditions: oral gavage, 10 mg/kg, 25 mg/kg, 50 mg/kg, bid, compared with the model group
# JAK3 JH1 kinase, sequence (P52333 822-1111 limits assumed): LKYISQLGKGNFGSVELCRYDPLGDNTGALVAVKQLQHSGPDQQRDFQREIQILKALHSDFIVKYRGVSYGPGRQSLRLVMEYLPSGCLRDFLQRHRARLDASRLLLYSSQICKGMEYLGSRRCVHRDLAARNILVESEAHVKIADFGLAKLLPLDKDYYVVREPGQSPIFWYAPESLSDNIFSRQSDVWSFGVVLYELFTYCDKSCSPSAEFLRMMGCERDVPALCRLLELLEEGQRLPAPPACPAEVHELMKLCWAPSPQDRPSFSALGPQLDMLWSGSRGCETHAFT
Structure (SMILES),IC50 (JAK3 JH1 kinase),IC50 (TYK2 JH1 kinase),GI50 [1],IC50 (JAK2 JH1 kinase),IC50 (JAK1 JH1 kinase),IC50 (TYK2 JH2 pseudokinase),hERG inhibition (hERG channel),IC50 (JAK1 JH2 pseudokinase),Improvement of psoriasis symptoms by oral administration [2]
"[2H]C([2H])([2H])NC(=O)c1cnc(NC(=O)C2CC2)cc1Nc1cccc(C(=O)Nc2ccc(F)cc2)c1OC [Example 57, 6-(Cyclopropanecarboxamido)-4-((3-((4-fluorophenyl)carbamoyl)-2-methoxyphenyl)amino)-N-(methyl-d3)nicotinamide]",> 10000 nM,> 10000 nM,1 to 5 nM,> 10000 nM,> 10000 nM,0.284 nM,no significant inhibition,5.68 nM,effectively improve psoriasis symptoms
[2H]C([2H])([2H])NC(=O)c1nnc(NC(=O)C2CC2)cc1Nc1cccc(C(=O)Nc2ccc(C)c(C)c2)c1OC [Example 4],> 10000 nM,> 10000 nM,1 to 5 nM,> 10000 nM,> 10000 nM,0.293 nM,no significant inhibition,5.33 nM,effectively improve psoriasis symptoms
[2H]C([2H])([2H])NC(=O)c1nnc(NC(=O)C2CC2)cc1Nc1cccc(C(=O)Nc2cnn(C)c2)c1OC [Example 34],> 10000 nM,> 10000 nM,1 to 5 nM,> 10000 nM,> 10000 nM,0.341 nM,no significant inhibition,4.16 nM,effectively improve psoriasis symptoms
[2H]C([2H])([2H])NC(=O)c1nnc(NC(=O)C2CC2)cc1Nc1cccc(C(=O)Nc2cncc(C)c2)c1OC [Example 38],> 10000 nM,> 10000 nM,1 to 5 nM,> 10000 nM,> 10000 nM,0.322 nM,no significant inhibition,2.35 nM,effectively improve psoriasis symptoms
[2H]C([2H])([2H])NC(=O)c1cnc(NC(=O)C2CC2)cc1Nc1cccc(C(=O)Nc2ccc(C)c(C)c2)c1OC [Example 62],> 10000 nM,> 10000 nM,1 to 5 nM,> 10000 nM,> 10000 nM,0.277 nM,no significant inhibition,14.3 nM,effectively improve psoriasis symptoms
[2H]C([2H])([2H])NC(=O)c1cnc(NC(=O)C2CC2)cc1Nc1cccc(C(=O)Nc2cnn(C)c2)c1OC [Example 86],> 10000 nM,> 10000 nM,1 to 5 nM,> 10000 nM,> 10000 nM,0.299 nM,no significant inhibition,17.6 nM,effectively improve psoriasis symptoms
[2H]C([2H])([2H])NC(=O)c1nnc(NC(=O)C2CC2)cc1Nc1cccc(C(=O)Nc2ccc(F)cc2)c1OC [Example 5],> 10000 nM,> 10000 nM,1 to 5 nM,> 10000 nM,> 10000 nM,0.281 nM,no significant inhibition,6.93 nM,effectively improve psoriasis symptoms
